The assay has as its target HEK-293 cells transfected with dox-inducible human wild type FGFR3 (Homo sapiens (Human), UniProt P22607). Briefly: FGFR3 pFGFR cell assay (ELISA). As to conditions: HEK-293 dox-inducible FGFR3, 1 hour compound, 100 ng/ml FGF-acidic. Format: cell-based. As to the method: FGFR3 pFGFR Cell Assay: • HEK-293 cells transfected with dox-inducible human wild type FGFR3 (SEQ ID NO: 5) were plated in a collagen or poly-D-lysine coated 96 well flat bottom plates at 4×10^5 cells/well in complete DMEM medium containing 10% FBS and 1 μg/ml doxycycline and allowed to attach for 24 h at 37° C., 5% CO2. Cells were treated with compound using 1:3 serial dilutions with a top final concentration of 5 μM. Compound was incubated on cells for 1 hour at 37° C., 5% CO2. Cells were then stimulated with a final concentration of 100 ng/ml human FGF-acidic for 5 minutes at 37° C., 5% CO2. Medium was removed and cells were lysed with lysis buffer containing phosphatase and protease inhibitors. Phospho FGFR3 was measured by ELISA (R&D Systems cat DYC2719). The ELISA captures total FGFR3 and detects total phospho tyrosine. Optical density was measured for each well using a Versamax reader at a wavelength of 450 nm. 100 POC was determined using no test compounds and 0 POC was determined using a control compound. The POC values were fit to a 4-parameter logistic curve as a function of the concentration of the compound, and the IC50 value is the point where the curve crosses 50 POC.
Background: ELISA stands for enzyme-linked immunosorbent assay.

This note sets out measurements from patent US12180207B2 (ARRAY BIOPHARMA INC., priority 2018, dated 2024).

pIC50: −log10 of the molar value.

Broadly, the pIC50 is the negative decadic logarithm of the IC50, by convention in mol/L. A lower pIC50 goes with a high IC50.

Sequence of HEK-293 cells transfected with dox-inducible human wild type FGFR3 (P22607 23-806): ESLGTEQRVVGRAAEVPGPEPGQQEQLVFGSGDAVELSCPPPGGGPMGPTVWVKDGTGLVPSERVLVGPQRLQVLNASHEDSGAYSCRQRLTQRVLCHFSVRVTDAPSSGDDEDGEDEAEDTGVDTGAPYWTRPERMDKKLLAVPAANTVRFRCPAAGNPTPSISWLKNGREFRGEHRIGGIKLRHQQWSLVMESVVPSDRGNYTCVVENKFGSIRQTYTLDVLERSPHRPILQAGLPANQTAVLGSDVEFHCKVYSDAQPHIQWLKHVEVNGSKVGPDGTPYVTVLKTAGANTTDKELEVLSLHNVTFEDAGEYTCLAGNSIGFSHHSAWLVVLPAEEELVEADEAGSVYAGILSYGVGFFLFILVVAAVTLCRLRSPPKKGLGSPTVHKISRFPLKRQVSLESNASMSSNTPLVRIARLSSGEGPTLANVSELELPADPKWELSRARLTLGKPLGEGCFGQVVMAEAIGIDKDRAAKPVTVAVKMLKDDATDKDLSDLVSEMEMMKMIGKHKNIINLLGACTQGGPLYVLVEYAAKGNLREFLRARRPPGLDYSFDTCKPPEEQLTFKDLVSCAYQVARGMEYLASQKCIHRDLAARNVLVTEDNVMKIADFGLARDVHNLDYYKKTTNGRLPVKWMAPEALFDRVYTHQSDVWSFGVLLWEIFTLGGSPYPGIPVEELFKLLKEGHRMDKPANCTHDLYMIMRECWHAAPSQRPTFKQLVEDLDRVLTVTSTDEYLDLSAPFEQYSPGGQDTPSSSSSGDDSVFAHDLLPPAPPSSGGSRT

The compound `C=CC(=O)N1CC(C(=O)N2CCC(n3cc(-c4cc(OC5CCC5)c5c(C#N)cnn5c4)cn3)CC2)C1` [Example 125, 6-(1-(1-(1-acryloylazetidine-3-carbonyl)piperidin-4-yl)-1H-pyrazol-4-yl)-4-cyclobutoxypyrazolo[1,5-a]pyridine-3-carbonitrile] gave a pIC50 of 8.05.

`COc1cc(-c2cnn(C3CCN(C(=O)C4CN(C(=O)/C=C/CN(C)C)C4)CC3)c2)cn2ncc(Cl)c12` [Example 174] showed a pIC50 of 6.86. Then `C=CS(=O)(=O)N1CCC(C(=O)N2CCC(n3cc(-c4cc(OC)c5c(C#N)cnn5c4)cn3)CC2)CC1` [Example 186, 4-methoxy-6-(1-(1-(1-(vinylsulfonyl)piperi-dine-4-carbonyl)piperidin-4-yl)-1H-pyrazol-4-yl)pyrazolo[1,5-a]pyridine-3-carbonitrile], with 8.22; and `C=CC(=O)N1CC(C(=O)N2CCN(c3ccc(-c4cc(OC)c5c(C#N)cnn5c4)cn3)CC2)C1` [Example 111, 6-(6-(4-(1-acryloylazetidine-3-carbonyl)piperazin-1-yl)pyridin-3-yl)-4-methoxypyrazolo[1,5-a]pyridine-3-carbonitrile], with 7.37; and `COc1cc(-c2cnn(C3CCN(CC4CN(C(=O)/C=C/CN(C)C)C4)CC3)c2)cn2ncc(C#N)c12` [Example 146, (E)-6-(1-(1-((1-(4-(dimethylamino)but-2-enoyl)azetidin-3-yl)methyl)piperidin-4-yl)-1H-pyrazol-4-yl)-4-methoxypyrazolo [1,5-a]pyridine-3-carbonitrile], with 7.10. Then `C=CC(=O)N1CC(C(=O)N2CCC(c3ccc(-c4cc(OC)c5c(C#N)cnn5c4)cc3)CC2)C1` [Example 101, 6-(4-(1-(1-acryloylazetidine-3-carbonyl)piperidin-4-yl)phenyl)-4-methoxypyrazolo[1,5-a]pyridine-3-carbonitrile], with 7.16. Turning to `C=CC(=O)N(C)c1ccc(C(=O)N2CCC(n3cc(-c4cc(OC)c5c(C#N)cnn5c4)cn3)CC2)cc1` [Example 178, N-(4-(4-(4-(3-cyano-4-methoxypyrazolo[1,5-a]pyridin-6-yl)-1H-pyrazol-1-yl)piperidine-1-carbonyl)phenyl)-N-methylacrylamide], the pIC50 was 7.36. Then `COc1cc(-c2cnn(C3CCN(C(=O)C4CN(C(=O)/C=C/CN(C)C)C4)CC3)c2)cn2ncc(C#N)c12` [Example 143, (E)-6-(1-(1-(1-(4-(dimethylamino)but-2-enoyl)azetidine-3-carbonyl)piperidin-4-yl)-1H-pyrazol-4-yl)-4-methoxypyrazolo [1,5-a]pyridine-3-carbonitrile], with 6.28. Under `C=CC(=O)N1CC(C(=O)N2CCC(n3cc(-c4cc(-c5ccc(NC(=O)C6CC6)cc5F)c5c(C#N)cnn5c4)cn3)CC2)C1` [Example 130, N-(4-(6-(1-(1-(1-acryloylazetidine-3-carbonyl)piperidin-4-yl)-1H-pyrazol-4-yl)-3-cyanopyrazolo[1,5-a]pyridin-4-yl)-3-fluorophenyl)cyclopropane-carboxamide] stands 6.53; under `C=CC(=O)N(C)c1ccc(CN2CCC(n3cc(-c4cc(OC)c5c(C#N)cnn5c4)cn3)CC2)cc1` [Example 10, N-(4-((4-(4-(3-cyano-4-methoxypyrazolo[1,5-a]pyridin-6-yl)-1H-pyrazol-1-yl)piperidin-1-yl)methyl)phenyl)-N-methylacrylamide], 7.42; under `C=CC(=O)N1CC2(CCN(C(=O)N3CCC(n4cc(-c5cc(OC)c6c(C#N)cnn6c5)cn4)CC3)CC2)C1` [Example 6, 6-(1-(1-(2-acryloyl-2,7-diazaspiro[3.5]nonane-7-carbonyl)piperidin-4-yl)-1H-pyrazol-4-yl)-4-methoxypyrazolo[1,5-a]pyridine-3-carbonitrile], 7.14.
